The conditions of this series: 298.15 K; 101.33 kPa; Crystal.

For orientation: mass density means the mass of a sample divided by its volume.

± gives the expanded uncertainty stated by the source.

With `NC(=O)c1cnccn1` [pyrazinecarboxamide], the mass density is 1100 ± 200 kg/m3. The same measure for `O=C(O)c1cnccn1` [2-pyrazinecarboxylic acid]: 1200 ± 200 kg/m3.

The values are drawn from the NIST ThermoML archive (doi:10.1016/j.jct.2004.08.006).
